Assay results as given in US10632101B2, “Methods and compositions for supporting endogenous systems related to life span” (USANA Health Sciences, Inc., priority 2016, dated 2020).

Legend:
mTOR = target: T1, mTOR (Homo sapiens, UniProt P42345); conditions: cited from earlier work
T1 construct: host or cells: isolated cells in culture (not specified)

Nrf2 = Nrf2 signaling fluorescent reporter assay in human retinal epithelial cell line; format: cell-based
Procedure: The assays were carried out with a fluorescent reporter assay that utilized a human retinal epithelial cell line. The assays also included validation by RT-PCR (reverse transcription polymerase chain reaction) of Nrf2 target genes. The human retinal epithelial cell line was purchased from ATCC (American Type Cell Culture, Manassas, Va.) and was configured to function as a fluorescent reporter assay. Test solutions of each of the alpha lipoic acid, resveratrol, curcumin, EGCG, Olivol®, rutin, quercetin, and hesperetin were prepared by serial dilution. Control solutions were also prepared. Positive control solutions of a known Nrf2 agonist, L-sulphoraphane was also prepared. Each test solution was then assayed for Nrf2 signaling activity using the fluorescent reporter assay and compared to control assays. The positive control solutions were also tested.

C. elegans strain CB5586 = assay: Phenotypic lifespan screening in C. elegans; format: in vivo
Procedure: Dilutions of the test formulations were applied to individual populations of C. elegans and the lifespan of each population was monitored. Any changes in the lifespan of an individual population compared to a control population were recorded and correlated to the respective test formulation (N356 or N357) and the respective dilution (0.1 mg/ml, 1 mg/ml, and 10 mg/ml).
The N256 and N357 formulations were each prepared as individual 100 mg/ml stock solutions in dimethyl sulfoxide (DMSO). Serial dilutions of each stock solution were then prepared at 0.1 mg/ml, 1 mg/ml, and 10 mg/ml in DMSO. Control solutions of DMSO only were also prepared. Synchronous aged adult populations of C. elegans strain CB5586 worms were prepared. The CB5586 strain comprises a pharyngeal GFP (green fluorescent protein) tag and a mutation in the bus-5 gene. The pharyngeal GFP tag allows for fluorescent images of the worm populations to be taken. The mutation in the bus-5 gene causes the loss of normal cuticle antigens that permits the cuticle of the worms to become permeable to the test formulations and allow direct uptake of the test formulations to avoid interaction of the test formulations with protective mechanisms of the gut channel. Each serial dilution of each test formulation was added to a separate population of the prepared worms. The control solutions were also added to separate populations of the prepared worms. The populations of the prepared worms were then maintained on standard nematode growth media (NGM) agar plates at 20° C. with sufficient food (Escherichia coli strain OP-50).
Each worm population was then monitored by fluorescent imaging to determine the number of living and dead worms as a function of time. The fluorescent imaging was analyzed by software that recognized and counted worms based on their fluorescent intensity compared to background fluorescence. […] The ability to distinguish between living and dead worms allowed the number of living worms and a cumulative number of dead worms to be monitored against time. Worm populations from a selection of fluorescent images were manually checked to verify that the software had accurately counted the number of living and dead worms.
The counts of the living and dead worms as a function of time were then analyzed for each of the worm populations and used to prepare Kaplan-Meier survival curves and associated statistics for each of the worm populations. […] The median lifespan is shown as the length of time after the last mitotic division that 50% of the test population remains viable when compared to the control population. The maximum lifespan extension is shown as the length of time after the last mitotic division that 5% of the test population remains viable when compared to the control population.
The counts of the living and dead worms as a function of time and the Kaplan-Meier survival curves and the associated statistics were then analyzed for each of the worm populations. The analysis included determining mean and median lifespan. The analysis included a non-parametric test, the Log-Rank test, which compares two survival functions for the overall lifespan assay and provides a reliable p-value summarizing the whole experiment. The analysis also included Fisher's Exact Test that calculated the significance of survival function comparisons at multiple specific time points throughout the experiment, rather than for the overall lifespan. The results of the analysis are shown below in Tables 10-17.
Phenotypic screening was carried out as described in EXAMPLE 2 for various individual compounds of the N357 formulation. […] Alpha lipoic acid was sourced from PureBulk™ USA as a racemic mix of R and S stereoisomers and was assigned a sample number of N198. Hesperidin was sourced from Sigma Aldrich at ≥80% purity and was assigned a sample number of N347. […]

human NF-κB = assay: NF-κB reporter cell assay, antagonist mode; format: cell-based; conditions: 2.54 μg/ml
[1] = tested on: NF-κB reporter cells (HEK293); assay: Live cell multiplex read-out in the NF-κB antagonist assay; format: cell-based, human
Procedure: Various receptor assays were carried out for test compounds corresponding to ingredients of the nutritional supplement composition. In general, the receptor assays utilized reporter cells that either expressed a native receptor or a receptor hybrid. The receptor hybrids were engineered so that the native N-terminal DNA binding domain (DBD) was replaced with a yeast Gal4 DBD. The reporter cells expressed a hybrid receptor comprising either the native receptor (Nrf2 and NF-κB) or the N-terminal Gal4 DNA binding domain fused to the ligand binding domain of the specific human nuclear receptor (PPARα, PPARδ, and PPARγ). The reporter gene (e.g., firefly luciferase) was functionally linked to either upstream receptor-specific response elements (GRE) or the Gal4 upstream activation sequence (UAS). A summary of the receptors, the reporter cells used for each particular receptor assay, and the reference compounds used to confirm performance of the receptor assays are indicated below in Table 4.
A vehicle control was prepared. […] After incubation, fluorescence was measured to determine a relative number of live cells per test well.

Oc1ccc(/C=C/c2cc(O)cc(O)c2)cc1 [Resveratrol, 3,5,4′-trihydroxy-trans-stilbene]
mTOR inhibition (mTOR; applied to isolated cells in culture): inhibit mTOR | mTOR inhibition, mitophagy and mitochondrial turnover (mTOR): inhibit mTOR, up-regulate mitophagy, and increase the rate of mitochondrial turnover | activation of Nrf2 (Nrf2; 10 μM and 1): demonstrated activation of Nrf2 | concentration with more activation of Nrf2 (Nrf2; of 10 μM and 1): 10 µM | Statistically Significant Result (C. elegans strain CB5586; 0.1 mg/ml compared to DMSO control): No statistical difference | effect on chronological lifespan (C. elegans strain CB5586; 0.1 and 10 mg/ml tested): significant positive and dose-dependent increase of chronological lifespan | NF-κB % Inhibition (human NF-κB): −50% | NF-κB % Live Cell ([1]; 0.28 μg/ml (resveratrol series)): 100% | NF-κB % Live Cell ([1]; 0.85 μg/ml): 100%
